Laboratory results as given in patent US11998539B2, “Substituted aminoquinolones as DGKalpha inhibitors for immune activation” (Bayer Aktiengesellschaft, priority 2019, dated 2024).

Biological target: DGKα (Homo sapiens (Human), UniProt P23743)
Assay: Human DGKα kinase activity inhibition assay (ADP-Glo)
Assay type: biochemical
Details: recombinant full-length human DGKα, 55 μM ATP, 7 μM 1,2-dioleoyl-sn-glycerol, read-out: IC50 values of examples in in vitro human DGKa kinase activity inhibition assays
Method in brief: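 Activity was measured as ADP production, detected by luciferase luminescence after removal of unused ATP. The enzyme was baculovirus-expressed full-length human DGKα with a C-terminal FLAG tag. The substrate was 1,2-dioleoyl-sn-glycerol in detergent micelles, and compounds came from 100× DMSO solutions.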

DGKα, sequence (P23743 other isoform, or with tags, fused parts or gaps): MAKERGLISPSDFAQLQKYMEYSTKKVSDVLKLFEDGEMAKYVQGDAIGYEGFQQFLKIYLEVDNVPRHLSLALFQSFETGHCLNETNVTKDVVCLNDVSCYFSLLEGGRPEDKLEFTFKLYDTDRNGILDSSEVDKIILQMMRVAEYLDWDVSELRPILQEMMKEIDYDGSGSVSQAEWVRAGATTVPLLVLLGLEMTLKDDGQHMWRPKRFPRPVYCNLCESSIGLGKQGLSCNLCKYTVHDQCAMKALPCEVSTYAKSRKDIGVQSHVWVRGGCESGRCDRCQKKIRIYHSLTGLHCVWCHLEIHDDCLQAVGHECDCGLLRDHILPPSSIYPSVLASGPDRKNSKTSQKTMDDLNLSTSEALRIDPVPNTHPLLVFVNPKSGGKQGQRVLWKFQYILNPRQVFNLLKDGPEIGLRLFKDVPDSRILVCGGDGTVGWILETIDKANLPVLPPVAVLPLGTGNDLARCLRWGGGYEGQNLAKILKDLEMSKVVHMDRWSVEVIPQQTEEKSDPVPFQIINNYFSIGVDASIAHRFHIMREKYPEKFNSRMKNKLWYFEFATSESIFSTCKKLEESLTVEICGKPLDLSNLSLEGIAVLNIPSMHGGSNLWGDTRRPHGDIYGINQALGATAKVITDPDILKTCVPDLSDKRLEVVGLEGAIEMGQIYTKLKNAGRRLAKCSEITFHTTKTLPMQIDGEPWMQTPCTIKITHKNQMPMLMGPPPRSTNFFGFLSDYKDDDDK

Row | SMILES | IC50 [nM]
1 | Cc1cccc2nc(C3CCN(c4c(C#N)c(=O)n(C)c5ccccc45)CC3)oc12 [Example 15, 1-methyl-4-[4-(7-methyl-1,3-benzoxazol-2-yl)piperidin-1-yl]-2-oxo-1,2-dihydroquinoline-3-carbonitrile] | 11
2 | Cn1c(=O)c(C#N)c(N2CCC(c3cccc(S(C)(=O)=O)c3)CC2)c2ccccc21 [Example 80, 4-{4-[3-(methanesulfonyl)phenyl]piperidin-1-yl}-1-methyl-2-oxo-1,2-dihydroquinoline-3-carbonitrile] | 333
3 | Cc1ccc2oc(C3CCN(c4c(C#N)c(=O)n(C)c5cc(P(C)(C)=O)ccc45)CC3)nc2c1 [Example 282, 7-(dimethylphosphoryl)-1-methyl-4-[4-(5-methyl-1,3-benzoxazol-2-yl)piperidin-1-yl]-2-oxo-1,2-dihydroquinoline-3-carbonitrile] | 872
4 | COc1ccc2c(N3CCC(c4nc5ccc(Cl)cc5o4)CC3)c(C#N)c(=O)n(C)c2c1 [Example 258, 4-[4-(6-chloro-1,3-benzoxazol-2-yl)piperidin-1-yl]-7-methoxy-1-methyl-2-oxo-1,2-dihydroquinoline-3-carbonitrile] | 29
5 | C=C(c1cc2c(N3CCC(c4nc5cc(C)ccc5o4)CC3)c(C#N)c(=O)n(C)c2cc1OC1CCOC1)C(F)(F)F (racemic) [Example 433, (rac)-1-methyl-4-[4-(5-methyl-1,3-benzoxazol-2-yl)piperidin-1-yl]-2-oxo-7-[(oxolan-3-yl)oxy]-6-(3,3,3-trifluoroprop-1-en-2-yl)-1,2-dihydroquinoline-3-carbonitrile] | 8.6
6 | Cc1ccc2oc(C3(C)CCN(c4c(C#N)c(=O)n(C)c5ccc(N6C[C@H](O)CC6=O)cc45)CC3)nc2c1 [Example 277, 6-[(4R)-4-hydroxy-2-oxopyrrolidin-1-yl]-1-methyl-4-[4-methyl-4-(5-methyl-1,3-benzoxazol-2-yl)piperidin-1-yl]-2-oxo-1,2-dihydroquinoline-3-carbonitrile] | 243
7 | Cn1c(=O)c(C#N)c(N2CCC(c3cccc4ncsc34)CC2)c2ccccc21 [Example 75, 4-[4-(1,3-benzothiazol-7-yl)piperidin-1-yl]-1-methyl-2-oxo-1,2-dihydroquinoline-3-carbonitrile] | 49
8 | Cc1ccc2c(N3CCC(C)(c4nc5ccccc5o4)CC3)c(C(N)=O)c(=O)n(C)c2c1 [Example 311, 4-[4-(1,3-benzoxazol-2-yl)-4-methylpiperidin-1-yl]-1,7-dimethyl-2-oxo-1,2-dihydroquinoline-3-carboxamide] | 1.2
9 | Cn1c(=O)c(C#N)c(N2CCC(c3nc4ccccc4s3)CC2)c2ccc(Br)cc21 [Example 33, 4-[4-(1,3-benzothiazol-2-yl)piperidin-1-yl]-7-bromo-1-methyl-2-oxo-1,2-dihydroquinoline-3-carbonitrile] | 6.2
10 | Cc1ccc2oc(C3(C)CCN(c4c(C#N)c(=O)n(C)c5ccc(C6CC6)cc45)CC3)nc2c1 [Example 210, 6-cyclopropyl-1-methyl-4-[4-methyl-4-(5-methyl-1,3-benzoxazol-2-yl)piperidin-1-yl]-2-oxo-1,2-dihydroquinoline-3-carbonitrile] | 119
11 | COc1ccc2c(N3CCC(c4nc5cc(Cl)ccc5o4)CC3)c(C#N)c(=O)n(C)c2c1 [Example 259, 4-[4-(5-chloro-1,3-benzoxazol-2-yl)piperidin-1-yl]-7-methoxy-1-methyl-2-oxo-1,2-dihydroquinoline-3-carbonitrile] | 29
12 | Cc1cc2c(N3CCC(c4ccn(-c5ccccc5C)n4)CC3)c(C#N)c(=O)n(C)c2cc1NCCO [Example 561, 7-[(2-hydroxyethyl)amino]-1,6-dimethyl-4-{4-[1-(2-methylphenyl)-1H-pyrazol-3-yl]piperidin-1-yl}-2-oxo-1,2-dihydroquinoline-3-carbonitrile] | 1.4
13 | COc1ccc(C2CCN(c3c(C#N)c(=O)n(C)c4cc(N5CCCC5=O)ccc34)CC2)cc1 [Example 96, 4-[4-(4-methoxyphenyl)piperidin-1-yl]-1-methyl-2-oxo-7-(2-oxopyrrolidin-1-yl)-1,2-dihydroquinoline-3-carbonitrile] | 20
14 | Cc1ccc2nc(C3(C)CCN(c4c(C(N)=O)c(=O)n(C)c5ccc(C)cc45)CC3)oc2c1 [Example 197, 1,6-dimethyl-4-[4-methyl-4-(6-methyl-1,3-benzoxazol-2-yl)piperidin-1-yl]-2-oxo-1,2-dihydroquinoline-3-carboxamide] | 2.2
15 | Cc1ccccc1-n1ccc(C2CCN(c3c(C#N)c(=O)n(C)c4ccccc34)CC2)n1 [Example 367, 1-methyl-4-{4-[1-(2-methylphenyl)-1H-pyrazol-3-yl]piperidin-1-yl}-2-oxo-1,2-dihydroquinoline-3-carbonitrile] | 21
16 | COc1ccc2c(c1)c(N1CCC(c3nc4cc(C)ccc4o3)CC1)c(C#N)c(=O)n2C [Example 402, 6-methoxy-1-methyl-4-[4-(5-methyl-1,3-benzoxazol-2-yl)piperidin-1-yl]-2-oxo-1,2-dihydroquinoline-3-carbonitrile] | 16

Row | SMILES | IC50 [nM]
17 | Cc1ccc2oc(C3CCN(c4c(C#N)c(=O)n(C)c5cc(O)c(Br)cc45)CC3)nc2c1 [Example 422, 6-bromo-7-hydroxy-1-methyl-4-[4-(5-methyl-1,3-benzoxazol-2-yl)piperidin-1-yl]-2-oxo-1,2-dihydroquinoline-3-carbonitrile] | 0.7
18 | CCOc1ccc2c(c1)c(N1CCC(c3nc4cc(C)ccc4o3)CC1)c(C(N)=O)c(=O)n2C [Example 502, 6-ethoxy-1-methyl-4-[4-(5-methyl-1,3-benzoxazol-2-yl)piperidin-1-yl]-2-oxo-1,2-dihydroquinoline-3-carboxamide] | 120
19 | Cn1c(=O)c(C#N)c(N2CCC(c3nc4cc(F)ccc4o3)CC2)c2ccccc21 [Example 6, 4-[4-(5-fluoro-1,3-benzoxazol-2-yl)piperidin-1-yl]-1-methyl-2-oxo-1,2-dihydroquinoline-3-carbonitrile] | 4.3
20 | Cc1ccc2oc(C3CCN(c4c(C(N)=O)c(=O)n(C)c5ccc(OCC(F)F)cc45)CC3)nc2c1 [Example 504, 6-(2,2-difluoroethoxy)-1-methyl-4-[4-(5-methyl-1,3-benzoxazol-2-yl)piperidin-1-yl]-2-oxo-1,2-dihydroquinoline-3-carboxamide] | 238
21 | Cc1ccc2oc(C3CCN(c4c(C(N)=O)c(=O)n(C)c5ccc(C#N)cc45)CC3)nc2c1 [Example 498, 6-cyano-1-methyl-4-[4-(5-methyl-1,3-benzoxazol-2-yl)piperidin-1-yl]-2-oxo-1,2-dihydroquinoline-3-carboxamide] | 3.1
22 | Cn1c(=O)c(C#N)c(N2CCC(c3cc(Cl)cc(Cl)c3)CC2)c2ccccc21 [Example 84, 4-[4-(3,5-dichlorophenyl)piperidin-1-yl]-1-methyl-2-oxo-1,2-dihydroquinoline-3-carbonitrile] | 52
23 | Cc1ccc2oc(C3CCN(c4c(C(N)=O)c(=O)n(C)c5cc(OCC6CO6)ccc45)CC3)nc2c1 (centres unmarked) [Example 481, 1-methyl-4-[4-(5-methyl-1,3-benzoxazol-2-yl)piperidin-1-yl]-7-{[oxiran-2-yl]methoxy}-2-oxo-1,2-dihydroquinoline-3-carboxamide] | 2
24 | Cn1c(=O)c(C(N)=O)c(N2CCC(C)(c3nc4ccccc4o3)CC2)c2ccc(F)cc21 [Example 303, 4-[4-(1,3-benzoxazol-2-yl)-4-methylpiperidin-1-yl]-7-fluoro-1-methyl-2-oxo-1,2-dihydroquinoline-3-carboxamide] | 1.9
25 | Cc1ccc2oc(C3CCN(c4c(C(N)=O)c(=O)n(C)c5ccc(S(C)(=O)=O)cc45)CC3)nc2c1 [Example 454, 6-(methanesulfonyl)-1-methyl-4-[4-(5-methyl-1,3-benzoxazol-2-yl)piperidin-1-yl]-2-oxo-1,2-dihydroquinoline-3-carboxamide] | 373
26 | Cc1ccc2oc(C3CCN(c4c(C#N)c(=O)n(C)c5cc(OC6CCOC6)c(Br)cc45)CC3)nc2c1 (racemic) [Example 424, (rac)-6-bromo-1-methyl-4-[4-(5-methyl-1,3-benzoxazol-2-yl)piperidin-1-yl]-2-oxo-7-[(oxolan-3-yl)oxy]-1,2-dihydroquinoline-3-carbonitrile] | 0.3
27 | Cn1c(=O)c(C#N)c(N2CCC(c3cccc4ccoc34)CC2)c2ccccc21 [Example 73] | 33
28 | Cc1ccc2oc(C3CCN(c4c(C(N)=O)c(=O)n(C)c5cc(OC6CCOCC6)ccc45)CC3)nc2c1 [Example 479, 1-methyl-4-[4-(5-methyl-1,3-benzoxazol-2-yl)piperidin-1-yl]-7-[(oxan-4-yl)oxy]-2-oxo-1,2-dihydroquinoline-3-carboxamide] | 59
29 | Cc1ccc2oc(C3CCN(c4c(C(N)=O)c(=O)n(C)c5cc(OC6COC6)ccc45)CC3)nc2c1 [Example 485, 1-methyl-4-[4-(5-methyl-1,3-benzoxazol-2-yl)piperidin-1-yl]-7-[(oxetan-3-yl)oxy]-2-oxo-1,2-dihydroquinoline-3-carboxamide] | 2
30 | Cc1ccc(-c2nnc(C3CCN(c4c(C(N)=O)c(=O)n(C)c5ccccc45)CC3)o2)cc1 [Example 462, 1-methyl-4-{4-[5-(4-methylphenyl)-1,3,4-oxadiazol-2-yl]piperidin-1-yl}-2-oxo-1,2-dihydroquinoline-3-carboxamide] | 121
31 | Cc1ccc2oc(C3(C)CCN(c4c(C(N)=O)c(=O)n(C)c5ccc(C#N)cc45)CC3)nc2c1 [Example 208, 6-cyano-1-methyl-4-[4-methyl-4-(5-methyl-1,3-benzoxazol-2-yl)piperidin-1-yl]-2-oxo-1,2-dihydroquinoline-3-carboxamide] | 3.4
32 | Cc1ccc2oc(C3(C)CCN(c4c(C#N)c(=O)n(C)c5cc(C6CC6)ccc45)CC3)nc2c1 [Example 250, 7-cyclopropyl-1-methyl-4-[4-methyl-4-(5-methyl-1,3-benzoxazol-2-yl)piperidin-1-yl]-2-oxo-1,2-dihydroquinoline-3-carbonitrile] | 9.1
